Measured values taken from PubChem BioAssay (NCI).
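Assay format: 96-well plates, 48-hour exposure. At the TGI there is no net growth.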

Legend:
Assay in all cases: NCI tumour cell line growth inhibition, 48 h
[1] = test system: ACHN renal
[2] = test system: 786-0 renal
[3] = test system: NCI-H226 lung
[4] = test system: SR leukemia
[5] = test system: IGROV1 ovarian
[6] = test system: SNB-75 CNS
[7] = test system: HOP-62 NSCLC
[8] = test system: EKVX NSCLC
[9] = test system: MCF7 breast
[10] = test system: UACC-62 melanoma
[11] = test system: RXF 393 renal

Row | SMILES | TGI [1] [µM] | TGI [2] [µM] | TGI [3] [µM] | TGI [4] [µM] | TGI [5] [µM] | TGI [6] [µM] | TGI [7] [µM] | TGI [8] [µM] | TGI [9] [µM] | TGI [10] [µM] | TGI [11] [µM]
1 | CN=C(NC#N)NCc1ccccc1 | > 100 | > 100 | > 100 | > 100 | > 100 | > 100 | > 100 | > 100 | – | – | –
2 | COC(=O)CC(c1ccccc1)C(C#N)(OP1(=O)OC(c2ccccc2)C(C)N1C)c1ccccc1 (centres undefined) | > 100 | > 100 | – | – | > 100 | > 100 | > 100 | > 100 | > 100 | > 100 | > 100
3 | NC(=O)NC(=O)c1cccc(C(=O)NC(N)=O)n1 | > 100 | > 100 | > 100 | > 100 | – | – | > 100 | > 100 | > 100 | > 100 | > 100
4 | Cc1cccc2c1CC1(Cc3c(C)cccc3C1=O)C2=O | > 100 | > 100 | – | > 100 | > 100 | > 100 | > 100 | > 100 | > 100 | – | > 100
5 | COc1cc(CNC(=O)CCCCCCCCCCSC#N)ccc1O | – | 41.5 | 37.8 | 91.5 | 22.9 | 29.3 | – | 54.6 | 34.9 | – | 21.9
6 | CCN(CC)C(=O)N1CN(c2ccccc2)C2(CCN(CCCC3(c4ccc(F)cc4)OCCO3)CC2)C1=O | – | 33.6 | 53.5 | 47.5 | – | 45.3 | 18.6 | 90.2 | 19.9 | 34.9 | 27.8
7 | O=c1ccc2c(Cl)sc(Cl)c2[nH]1 | > 100 | > 100 | – | – | > 100 | > 100 | > 100 | > 100 | > 100 | > 100 | > 100
8 | COc1cc2oc(=O)cc(C)c2c(OC)c1OC | > 100 | > 100 | > 100 | > 100 | > 100 | > 100 | > 100 | > 100 | > 100 | > 100 | –
9 | COc1ccccc1N1C(=O)/C(=C\c2ccccc2)SC1c1cc(OC)c(OC)c(OC)c1 (centres undefined) | > 100 | > 100 | > 100 | > 100 | – | – | > 100 | > 100 | > 100 | > 100 | –
10 | COc1ccc([C@H]2C=C(c3cc(F)c(Cl)cc3Cl)N=c3s/c(=C\c4ccc(-c5ccc(Cl)cc5Cl)o4)c(=O)n32)cc1 | > 100 | > 100 | > 100 | – | > 100 | > 100 | 45.3 | – | > 100 | > 100 | > 100
11 | COc1ccc(C2=Nn3c(C)nnc3S/C2=C\c2ccc(-c3ccc([N+](=O)[O-])cc3)o2)cc1 | 25.3 | 22 | 46.2 | – | 42.7 | – | > 100 | 82.9 | 88.7 | 28.3 | 22.8
12 | C[C@H](N)C(=O)Nc1ccc(-c2nc3ccccc3s2)cc1Cl | 29 | 25.7 | 11.2 | 13.9 | > 100 | 34.8 | 26 | 26.7 | – | 31.1 | 30.2
13 | CSc1nnc2n1-c1ccccc1SCC2 | > 100 | > 100 | > 100 | > 100 | > 100 | > 100 | > 100 | > 100 | – | > 100 | > 100
14 | O=C(O)Cc1ccc(-n2nnc3c(=O)[nH][nH]c(=O)c32)cc1 | > 100 | > 100 | – | > 100 | – | – | > 100 | > 100 | > 100 | – | –
15 | C=CCOC1=C(OC(C)=O)C(C2COC(C)(C)O2)OC1=O (centres undefined) | 32.5 | 37.4 | > 100 | – | > 100 | > 100 | > 100 | 39.9 | 32.8 | 68.2 | 46.3
16 | FC(F)(F)c1ccc(N=NN2CCCC2)cc1 | > 100 | > 100 | > 100 | > 100 | > 100 | – | > 100 | > 100 | > 100 | > 100 | > 100
17 | O=C(O)COc1cccc2ccccc(=O)c12 | > 100 | > 100 | > 100 | > 100 | > 100 | – | > 100 | > 100 | > 100 | > 100 | > 100
18 | O=CN/C=C\c1cc(O)ccc1O | 28.2 | 31.1 | > 100 | 21.3 | > 58.4 | > 100 | 60.2 | 32.9 | – | 17.5 | –
19 | CC(C)(C)OC(=O)/C=C/[C@@H](CCC(=O)/C=C/[C@H](/C=C\CCCC(=O)O)NC1(c2ccccc2)c2ccccc2-c2ccccc21)O[Si](C)(C)C(C)(C)C | 36.3 | 33.3 | 40.3 | > 100 | 35.5 | – | 36.5 | 45.9 | 38.7 | 29.6 | 24.5
20 | CSc1c(C#N)c(=O)n(N)c2n[nH]c(C)c12 | – | > 100 | > 100 | > 100 | – | > 100 | – | > 100 | > 100 | > 100 | > 100
21 | CSc1cc(Cl)c(C)cc1S(=O)(=O)NC(=O)NNc1cnc2ccccc2n1 | > 100 | > 100 | > 100 | > 100 | > 100 | – | > 100 | > 100 | > 100 | – | > 100
22 | NCCCCNCCCNC(=O)c1csc(-c2nc(CCN)sc2Cl)n1 | > 100 | > 100 | > 100 | – | > 100 | > 100 | > 100 | > 100 | > 100 | > 100 | > 100
23 | O=c1[nH]nc(-c2ccccc2)c2[nH]c3c(c12)CCCc1ccccc1-3 | 38.9 | 28 | 37.5 | 69.9 | 25 | – | 46.4 | > 100 | 50.9 | 25.1 | 36
